Earlier results in patent US10172842B2, “Sustained release oral dosage form containing dalfampridine” (PharmaDax Inc., priority 2015, dated 2019).

What was measured:
[1] = in the absence of other risk factors
[2] = plasma concentrations lower than 13 ng/mL

## Nc1ccncc1 [dalfampridine, 4-aminopyridine]
[1]
  plasma dalfampridine concentration considered a likely threshold for increased risk of seizure: approximately 100 ng/mL
[2]
  changes in walking speed in MS patients: low percentage changes in walking speed
